Experimental data published in paper PMC11285948, “The effects of CYP2B6 inactivators on the metabolism of ciprofol” (PLOS ONE, 2024).
Read-outs that look alike come from different tables or passages of the source.

Assay: Pharmacokinetics of ciprofol in rats pretreated with psoralen, clopidogrel or CMC
Format: in vivo, rat
Conditions: SD, rat, plasma, ciprofol 2.4 mg·kg^-1 i.v.; for concentration at 20 min: T 20.00 min; for concentration at 30 min: T 30.00 min; for concentration at 45 min: T 45.00 min; for concentration at 2 min: T 2.00 min; for concentration at 8 min: T 8.00 min; for concentration at 12 min: T 12.00 min; for concentration at 16 min: T 16.00 min; for Tmax: read-out: Tmax (converted)
Description: 5 μL of IS solution (2.5 μg·mL^-1 D6-ciprofol) was added to 100 μL of plasma and mixed. Then, 300 μL of acetonitrile was added. The mixture was vortexed for 2 min and centrifuged for 10 min, and the supernatant was transferred to an autosampler vial for HPLC-MS/MS detection.
Twenty-four SD rats were randomly and equally divided into three groups: the control group, psoralen group and clopidogrel group. The administration scheme was as follows: the control group received 0.5% carboxy methyl cellulose by gavage (1 mL·200 g^-1), the psoralen group received 27 mg·kg^-1 psoralen by gavage, and the clopidogrel group was gavaged with 7.5 mg·kg^-1 clopidogrel. […] All rats were treated once daily for seven days. Each rat was injected with 2.4 mg·kg^-1 ciprofol via the tail vein 12 h after the end of dosing on Day 7. Rats that received ciprofol injection were placed on a flat and soft insulation pad. Timekeeping began when the rats were in the supine position and lost the righting reflex and ended when the rats could turn to the prone position successfully. The duration of loss of righting reflex (LORR) in each rat was measured. During this period, approximately 300 μL of blood was collected from the inner canthus at 2, 4, 8, 12, 16, 20, 30, 45, and 60 min after ciprofol administration, and the plasma was separated. The plasma was processed and measured as described in Section 2.4.3, and DAS 2.0 software and a noncompartmental model were used to analyse the pharmacokinetic parameters.
IBM SPSS Statistics 27 software was used to analyse the main pharmacokinetic parameters, and GraphPad Prism 8.0.2 software was used for graphical visualization. One-way ANOVA was used, and multiple comparisons were performed using the least significant difference (LSD)-T test, for which P < 0.05 indicated a significant difference.

[1] = iv, 2.4 mg/kg, Control (CMC-Na), rats No.1-8 and Mean
[2] = iv, 2.4 mg·kg^-1, Control (CMC-Na), rats No.1-8 and Mean
[3] = iv, 6.75 mg/kg, Clopidogrel(6.75mg/kg)group, rats No.1-8 and Mean
[4] = iv, 27 mg/kg, Psoralen(27mg/kg)group, rats No.1-8 and Mean

Question: What does the source list for `CC(C)c1cccc([C@H](C)C2CC2)c1O` [ciprofol]?
Answer: clearance (intravenous, 2.4 mg/kg, rats, Psoralen group (27 mg·kg^-1 gavage daily 7 d), n = 8, read-out: CL (converted)): 128 mL/min/kg; MRT last (intravenous, 2.4 mg/kg, rats, Psoralen group (27 mg·kg^-1 gavage daily 7 d), n = 8, read-out: MRT0-t): 13.8 ± 1.2 min; MRT inf (intravenous, 2.4 mg/kg, rats, Psoralen group (27 mg·kg^-1 gavage daily 7 d), n = 8, read-out: MRT0-∞): 16.8 ± 3 min; Vd (intravenous, 2.4 mg/kg, rats, Psoralen group (27 mg·kg^-1 gavage daily 7 d), n = 8, read-out: Vd): 2.8 ± 0.46 L/kg; half-life (intravenous, 2.4 mg/kg, rats, Psoralen group (27 mg·kg^-1 gavage daily 7 d), n = 8, read-out: t1/2 (converted)): 15.6 ± 3 min; concentration at 20 min [1]: 159 ng/mL; concentration at 30 min [1]: 93.3 ng/mL; concentration at 45 min [1]: 67.3 ng/mL; Cmax [1]: 1550 ng/mL; clearance (iv, 2.4 mg/kg, Control (CMC-Na), rats No.1-8 and Mean, read-out: CLz): 150 mL/min/kg; MRT last (iv, 2.4 mg/kg, Control (CMC-Na), rats No.1-8 and Mean, read-out: MRT(0-t) (converted)): 10.8 min; MRT inf (iv, 2.4 mg/kg, Control (CMC-Na), rats No.1-8 and Mean, read-out: MRT(0-∞) (converted)): 12.9 min; Vd (iv, 2.4 mg/kg, Control (CMC-Na), rats No.1-8 and Mean, read-out: Vz): 3.02 L/kg; half-life (iv, 2.4 mg/kg, Control (CMC-Na), rats No.1-8 and Mean, read-out: t1/2z): 13.8 min; concentration at 2 min [2]: 1500 ng/mL; concentration at 8 min [2]: 419 ng/mL; concentration at 12 min [2]: 312 ng/mL; concentration at 16 min [2]: 224 ng/mL; concentration at 2 min [3]: 1050 ng/mL; concentration at 8 min [3]: 406 ng/mL; concentration at 12 min [3]: 334 ng/mL; concentration at 16 min [3]: 266 ng/mL; concentration at 20 min [3]: 193 ng/mL; concentration at 45 min [3]: 65.7 ng/mL; concentration at 60 min (iv, 6.75 mg/kg, Clopidogrel(6.75mg/kg)group, T 60.00 min, rats No.1-8 and Mean): 43.3 ng/mL; Cmax [3]: 1490 ng/mL; clearance (iv, 6.75 mg/kg, Clopidogrel(6.75mg/kg)group, rats No.1-8 and Mean, read-out: CLz): 130 mL/min/kg; MRT last (iv, 6.75 mg/kg, Clopidogrel(6.75mg/kg)group, rats No.1-8 and Mean, read-out: MRT(0-t) (converted)): 12.6 min; concentration at 2 min [4]: 1560 ng/mL; concentration at 4 min (iv, 27 mg/kg, Psoralen(27mg/kg)group, T 4.00 min, rats No.1-8 and Mean): 895 ng/mL; concentration at 8 min [4]: 532 ng/mL; concentration at 12 min [4]: 374 ng/mL; concentration at 16 min [4]: 348 ng/mL; concentration at 20 min [4]: 203 ng/mL; concentration at 30 min [4]: 145 ng/mL; Cmax [4]: 1490 ng/mL; MRT last (iv, 27 mg/kg, Psoralen(27mg/kg)group, rats No.1-8 and Mean, read-out: MRT(0-t) (converted)): 13.6 min; MRT inf (iv, 27 mg/kg, Psoralen(27mg/kg)group, rats No.1-8 and Mean, read-out: MRT(0-∞) (converted)): 17 min; Vd (iv, 27 mg/kg, Psoralen(27mg/kg)group, rats No.1-8 and Mean, read-out: Vz): 2.8 L/kg; half-life (iv, 27 mg/kg, Psoralen(27mg/kg)group, rats No.1-8 and Mean, read-out: t1/2z): 15.4 min; Tmax (iv, Clopidogrel(6.75mg/kg)group, rats No.1-8 and Mean): 2 min; Tmax (iv, Control (CMC-Na), rats No.1-8 and Mean): 2 min; Tmax (iv, Psoralen(27mg/kg)group, rats No.1-8 and Mean): 2 min
